Experiments:
common ragweed = assay: Test C pre-/postemergence herbicide test; format: in vivo, Ambrosia elatior; design: key to Plant response rating, Ragweed: 0 = no effect, 100 = complete control
Procedure, shortened: (§1)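 Visual ratings on a 0–100 scale (100 = complete control) made versus untreated controls after 12 to 14 greenhouse days. Test chemicals, formulated in surfactant-containing non-phytotoxic solvent, applied preemergence to planted seeds or postemergence to 1- to 4-leaf plants (2 to 18 cm).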

corn = assay: Test B pre-/postemergence herbicide test; format: in vivo, Zea mays
Procedure, shortened: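 Greenhouse pot assay with simultaneous preemergence (treated seed) and postemergence (2–18 cm seedlings) applications of surfactant-containing, non-phytotoxic solvent formulations. Response scored visually 13–15 days later on a 0–100 scale, 100 meaning complete control.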

blackgrass = assay: Test B postemergence herbicide test; format: in vivo, Alopecurus myosuroides; conditions: scale 0 (no effect) to 100 (complete control); for Plant response rating, Blackgrass: Postemergence, 500 g ai/ha, visual rating after 13 to 15 days; for Blackgrass plant response rating: postemergence, 125 g ai/ha, visual rating
Procedure, shortened: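 Plants grow to 1- to 4-leaf stage (2–18 cm) for postemergence spraying, or to 2-leaf stage for the paddy test. Formulated compound is applied. Greenhouse holding lasts 13–15 days. Response is scored visually relative to controls, 0 no effect to 100 complete control; a dash means no result.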

redroot pigweed = assay: Test A pre-/postemergence herbicide test; format: in vivo, Amaranthus retroflexus
Procedure, shortened: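 Visual injury scores on a 0–100 scale (100 = complete control) taken about ten days post-treatment in greenhouse against untreated controls; dash means no result. Treatments: preemergence soil spray and postemergence spray to runoff on one- to two-leaf plants 2 to 10 cm tall, surfactant-containing formulation.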

soybean = assay: Test C pre-/postemergence herbicide test; format: in vivo, Glycine max
Procedure, shortened: as §1

woolly cupgrass = assay: Test C pre-/postemergence herbicide test; format: in vivo, Eriochloa villosa
Procedure, shortened: as §1

[1] = 31 g ai/ha, preemergence, scale 0 to 100
[2] = 125 g ai/ha, scale 0 (no effect) to 100 (complete control), visual, 12 to 14 days, preemergence
[3] = 250 g ai/ha, scale 0 to 100 (0 no effect, 100 complete control), visual, 12 to 14 days, preemergence
[4] = Postemergence, 250 g ai/ha, scale 0 to 100, 0 no effect, 100 complete control
[5] = postemergence, 125 g ai/ha, scale 0 to 100
[6] = postemergence, 62 g ai/ha, scale 0 to 100
[7] = Postemergence, 500 g ai/ha, visual rating after 13 to 15 days, scale 0 (no effect) to 100 (complete control)
[8] = Preemergence, 500 g ai/ha, scale 0 to 100
[9] = postemergence, 125 g ai/ha, visual rating, scale 0 (no effect) to 100 (complete control)
[10] = preemergence, 125 g ai/ha, 0 to 100 scale, 0 is no effect, 100 is complete control
[11] = Postemergence, 500 g ai/ha, 0 to 100 scale, 0 no effect, 100 complete control
[12] = Postemergence, 2000 g ai/ha, 0 to 100 scale, 0 no effect, 100 complete control
[13] = Preemergence, 500 g ai/ha, visual rating, 0 to 100 scale (0 no effect, 100 complete control)
[14] = Preemergence, 2000 g ai/ha, 0 to 100 scale, 0 no effect, 100 complete control
[15] = Postemergence, 500 g ai/ha, scale 0 to 100

Row | SMILES | Plant response rating, Ragweed (common ragweed; [4]) | Plant response rating, Ragweed (common ragweed; [5]) | Plant response rating, Ragweed (common ragweed; [6]) | Plant response rating, Corn (corn; [7]) | Corn plant response rating (corn; [8]) | Corn plant response rating (corn; [9]) | Plant response rating, Corn (corn; [10]) | Plant response rating, Blackgrass (blackgrass) | Blackgrass plant response rating (blackgrass) | Plant response rating, Pigweed (redroot pigweed; [12]) | Pigweed plant response rating (redroot pigweed; [13]) | Pigweed plant response rating (redroot pigweed; [14]) | Plant response rating, Soybean (soybean; [4]) | Plant response rating, Soybean (soybean; [5]) | Plant response rating, Soybean (soybean; [6]) | Plant response rating, Cupgrass, Woolly (woolly cupgrass; [4]) | Plant response rating, Cupgrass, Woolly (woolly cupgrass; [5]) | Plant response rating, Cupgrass, Woolly (woolly cupgrass; [6]) | other results
1 | CCn1nc(C(C)(C)C)cc1C(=O)Nc1ccc(F)c(C(=O)NCCF)c1 [Compound 60] | 5 | 5 | 0 | 20 | 0 | 10 | 0 | 0 | 0 | 95 | 95 | 100 | 50 | 40 | 20 | 5 | 5 | 0 | Plant response rating, Ragweed (common ragweed; [1]): 0; Plant response rating (0 = no effect, 100 = complete control), Ragweed (common ragweed; 62 g ai/ha, preemergence): 10; Plant response rating, Ragweed (common ragweed; [2]): 80; Plant response rating, Ragweed (common ragweed; [3]): 95; Plant response rating, Pigweed (redroot pigweed; [11]): 40; Plant response rating, Soybean (soybean; [1]): 0; Plant response rating (0 = no effect, 100 = complete control), Soybean (soybean; 62 g ai/ha, preemergence): 0; Plant response rating, Soybean (soybean; [2]): 0; Plant response rating, Soybean (soybean; [3]): 0; Plant response rating, Cupgrass, Woolly (woolly cupgrass; [1]): 0; Plant response rating (0 = no effect, 100 = complete control), Cupgrass, Woolly (woolly cupgrass; 62 g ai/ha, preemergence): 0; Plant response rating, Cupgrass, Woolly (woolly cupgrass; [2]): 10; Plant response rating, Cupgrass, Woolly (woolly cupgrass; [3]): 70
2 | C=CCOC(=O)c1cccc(NC(=O)c2cc(C(C)(C)C)nn2CC)c1 [Compound 85] | 40 | 10 | 10 | 30 | 0 | 20 | 0 | 20 | 10 | 70 | 0 | 5 | 80 | 60 | 55 | 80 | 50 | 40 | Ragweed plant response rating (common ragweed; [15]): 60; Pigweed plant response rating (redroot pigweed; [11]): 75; Soybean plant response rating (soybean; [15]): 95; Cupgrass, Woolly plant response rating (woolly cupgrass; [15]): 85

From patent US20060069132A1, “Azolecarboxamide herbicides” (priority 2004, published 2006)
